Experimental findings from a melting point compilation (Tetko et al.; mined from patent text by program, amines drawn as free bases though some values may be those of a salt) are described below.

Each structure is given as a SMILES string.

Broadly, the melting point is the temperature, or range, at which the solid turns liquid. On to `COC(=O)c1[nH]c2c(C)ccc(C)c2c1C=NOCc1ccccc1`, for which the melting point lay within 104 to 105 °C.

On to `COc1ccc(NC(=O)Nc2ccc(Cl)c(Cl)c2)cc1N`, for which the melting point was in the range of 202 to 204 °C.

For `Cc1nc(N)nc(N)c1N1CCN(c2ccc(S(=O)(=O)N(C)C)cc2)CC1`, the melting point fell in the range of 301 to 304 °C. Regarding `COC=C(C(=O)OC)c1ccccc1Oc1ncnc(F)c1F`, the melting point was determined as 69 °C. As for `CC(=O)Oc1cc(CCc2ccccc2)cc(OC(C)=O)c1OC(C)=O`, the melting point is 79.5 to 80 °C. With `Cc1cccn2ccnc12`, the melting point fell in the range of 150 to 152 °C. Compound `CCOC(=O)c1ccc(O)c(-n2cc3c(c2-c2ccccc2)c(=O)n(C)c(=O)n3C)c1` yielded a melting point of 129 to 130 °C. Then `COc1ccc(OCCCN2CCC(C(O)(c3ccc(F)cc3)c3ccc(F)cc3)CC2)cc1`, with 107 to 108 °C; and `Oc1ccc2c(c1O)Cc1ccccc1-2`, with 159 to 162 °C; and `Cc1nc(Nc2ccc(C(C)C)cc2Br)c([N+](=O)[O-])c(-c2ccccc2C(F)(F)F)n1`, with 146 °C. For `COC(C)C(=O)Nc1ccc(C2=NNC(=O)CC2C)cc1` (stereo not given) the value was 193 to 194 °C; for `COc1ccc(S(=O)(=O)Nc2c(C(=O)NO)cc(C)c(Cc3ccccc3)c2C#N)cc1`, 175 °C; for `CC(=O)Cn1c(=O)n(C2CCN(CCCC(c3ccc(F)cc3)c3ccc(F)cc3)CC2)c2ccc(Cl)cc21`, 175 °C.

The compound `CCOC(=O)c1c[nH]c(SC(F)(F)F)c1-c1ccc(Cl)cc1` gave a melting point of 162 to 164 °C. As for `CC(=O)N1CCSc2ccccc2C1`, the melting point is 69 to 70 °C. With `O=C1CC[C@@H](C(=O)N[C@@H](CSSC[C@H](NC(=O)[C@@H]2CCC(=O)N2)C(=O)O)C(=O)O)N1`, the melting point was in the range of 191 to 193 °C. For the compound `O=C(Nc1ccccn1)c1cc2ccnc(Cl)c2[nH]1`, the melting point was 94 to 102 °C.

`COC(=O)[C@H]1CC[C@H](NC(=O)c2cc(-c3ccc(C#N)cc3)nnc2N2CCOCC2)CC1` returned a melting point of 269 to 271 °C.

`Cc1c(-c2ccncc2)[nH]c2c1C(=O)CCC2`: the melting point lay in the range of 248 to 249 °C. As to `O=C1OC(=O)c2c(Cl)c(Sc3ccccc3)c(Sc3ccccc3)c(Cl)c21`, the melting point was in the range of 204 to 207 °C. For `COc1cc(-c2cc(N)n(C)c3nc(N)nc(=O)c2-3)cc(OC)c1OC` the value was greater than 300 °C; for `OCc1cccc(-c2csc(-c3cn([C@H]4CN5CCC4CC5)nn3)c2)c1`, 211 °C; for `Cc1cccc(-c2n[nH]cc2-c2ccc(F)c(-c3ccc(S(N)(=O)=O)cc3)c2)n1`, 115 to 118 °C. Regarding `Nc1nc(=O)n(CCCN2CCN(C(c3ccccc3)c3ccccc3)CC2)c2ccccc12`, the melting point was 190 to 196 °C. As to `CC(C)(O)C1CCN(Cc2ccccc2)CC1`, the melting point was found to be 66 °C. The compound `O=C1CCC(N2Cc3cc(CNC(=O)Nc4ccc(SC(F)(F)F)cc4)ccc3C2=O)C(=O)N1` (stereo not given) yielded a melting point of 218 to 220 °C. Take `CC1(C)Nc2ccc(Br)cc2C(NC(=NC#N)Nc2ccccc2)C1O` (stereo not given): the melting point is 232 to 233 °C.

With `C=C(C(=O)c1ccc(-n2ccnc2)nc1)c1ccc(F)cc1F`, the melting point is 115 to 116 °C. Take `CCOC(=O)c1c(C(F)(F)F)nc2ccc(OC)cc2c1O`: the melting point was found to be 184 °C.

The compound `O=C(O)c1cn(CCO)c2c(F)c(N3CCn4ccnc4C3)c(F)cc2c1=O` gave a melting point of 253 to 255 °C. Then `CCCCc1nc2ccccc2n1Cc1ccc(-c2ccccc2C=O)cc1`, with 117 to 118 °C; and `CSC1C(=O)Nc2cccc([N+](=O)[O-])c21` (stereo not given), with 228 to 230 °C; and `CS(=O)c1cccc2c1CC(=O)N2C(N)=O` (stereo not given), with 198 to 200 °C.

In turn, `O=C(NC(Cc1ccccc1)C(=O)C(F)F)c1ccccc1` (stereo not given) gave a melting point of 136 °C.

For `COC(=O)c1nc(Cl)c(F)c(N)c1/C=C/Cl`, the melting point lay within 128 to 130 °C.
